Literature values in PMC5560747, “Computational-experimental approach to drug-target interaction mapping: A case study on kinase inhibitors” (PLoS Computational Biology, 2017).

What was measured:
Set-up in all cases: method as in Gao et al. [42]
JAK2 = conditions: ref Gao et al. [42], cited from earlier work
EEF2K = conditions: ref Gao et al. [42], cited from earlier work
ERK2 = conditions: ref Gao et al. [42], cited from earlier work
NEK2 = conditions: ref Gao et al. [42], cited from earlier work
BTK = BTK (Homo sapiens, UniProt Q06187); conditions: ref Gao et al. [42], cited from earlier work
IKKb = conditions: ref Gao et al. [42], cited from earlier work
PKCg = conditions: ref Gao et al. [42], cited from earlier work
FES = conditions: ref Gao et al. [42], cited from earlier work
STK17A = conditions: ref Gao et al. [42], cited from earlier work
FER = conditions: ref Gao et al. [42], cited from earlier work
JAK3 = JAK3 (Homo sapiens, UniProt P52333); conditions: ref Gao et al. [42], cited from earlier work
TRKB = conditions: ref Gao et al. [42], cited from earlier work
CLK2 = conditions: ref Gao et al. [42], cited from earlier work
ITK = ITK (Homo sapiens, UniProt Q08881); conditions: ref Gao et al. [42]; cited from earlier work
DAPK3 = conditions: ref Gao et al. [42], cited from earlier work
CHUK = conditions: ref Gao et al. [42], cited from earlier work
LYN B = LYN B (Homo sapiens, UniProt P07948); conditions: ref Gao et al. [42], cited from earlier work
CHK1 = conditions: ref Gao et al. [42], cited from earlier work
PRKX = conditions: ref Gao et al. [42], cited from earlier work
CAMK2B = conditions: ref Gao et al. [42], cited from earlier work
IRAK1 = conditions: ref Gao et al. [42], cited from earlier work
CAMK2D = conditions: ref Gao et al. [42], cited from earlier work
MAPKAPK2 = conditions: ref Gao et al. [42], cited from earlier work
AKT2 = conditions: ref Gao et al. [42], cited from earlier work
CDK2 = conditions: ref Gao et al. [42], cited from earlier work
AKT3 = conditions: ref Gao et al. [42], cited from earlier work
PIM1 = conditions: ref Gao et al. [42], cited from earlier work
ROS1 = conditions: ref Gao et al. [42], cited from earlier work
TSSK1B = conditions: ref Gao et al. [42], cited from earlier work
ALK = conditions: ref Gao et al. [42], cited from earlier work
MARK2 = conditions: ref Gao et al. [42], cited from earlier work
FGFR3 = conditions: ref Gao et al. [42], cited from earlier work
InsR = InsR (Homo sapiens, UniProt P06213); conditions: ref Gao et al. [42], cited from earlier work
Sequence of InsR (P06213 28-1382): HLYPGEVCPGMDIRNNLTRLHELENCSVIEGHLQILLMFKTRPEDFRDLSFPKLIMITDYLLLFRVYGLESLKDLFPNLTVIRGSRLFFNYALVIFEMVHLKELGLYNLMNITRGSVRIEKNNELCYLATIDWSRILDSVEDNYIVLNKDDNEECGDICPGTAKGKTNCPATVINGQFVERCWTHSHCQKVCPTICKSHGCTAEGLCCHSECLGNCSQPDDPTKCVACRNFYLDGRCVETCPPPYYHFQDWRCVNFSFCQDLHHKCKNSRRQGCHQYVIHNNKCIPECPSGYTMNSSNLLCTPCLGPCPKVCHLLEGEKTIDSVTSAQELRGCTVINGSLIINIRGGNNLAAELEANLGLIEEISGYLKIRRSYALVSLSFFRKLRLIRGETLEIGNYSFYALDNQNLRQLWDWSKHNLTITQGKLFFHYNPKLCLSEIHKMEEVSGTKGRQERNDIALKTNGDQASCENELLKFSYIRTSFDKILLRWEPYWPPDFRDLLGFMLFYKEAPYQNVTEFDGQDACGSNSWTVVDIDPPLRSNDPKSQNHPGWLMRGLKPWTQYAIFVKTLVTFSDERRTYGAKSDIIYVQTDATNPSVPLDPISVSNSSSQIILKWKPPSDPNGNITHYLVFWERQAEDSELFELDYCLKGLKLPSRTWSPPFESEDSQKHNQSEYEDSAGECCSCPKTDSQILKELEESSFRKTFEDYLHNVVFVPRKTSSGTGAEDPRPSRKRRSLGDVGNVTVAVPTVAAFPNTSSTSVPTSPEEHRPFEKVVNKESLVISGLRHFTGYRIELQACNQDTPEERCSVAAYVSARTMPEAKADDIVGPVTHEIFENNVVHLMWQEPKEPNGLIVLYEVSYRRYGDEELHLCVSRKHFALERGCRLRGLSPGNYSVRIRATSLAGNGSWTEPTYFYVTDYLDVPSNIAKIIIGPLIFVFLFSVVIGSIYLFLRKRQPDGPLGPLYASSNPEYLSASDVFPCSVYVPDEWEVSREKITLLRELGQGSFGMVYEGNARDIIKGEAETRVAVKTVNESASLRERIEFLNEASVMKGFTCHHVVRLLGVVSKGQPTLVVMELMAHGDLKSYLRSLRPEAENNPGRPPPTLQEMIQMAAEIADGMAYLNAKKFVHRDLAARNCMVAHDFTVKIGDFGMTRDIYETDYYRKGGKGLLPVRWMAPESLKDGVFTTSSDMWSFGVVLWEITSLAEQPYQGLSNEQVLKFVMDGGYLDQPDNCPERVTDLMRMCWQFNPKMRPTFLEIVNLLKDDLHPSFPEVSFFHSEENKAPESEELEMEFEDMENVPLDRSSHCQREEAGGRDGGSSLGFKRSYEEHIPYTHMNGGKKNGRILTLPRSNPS

Sequence of BTK (Q06187 whole entry): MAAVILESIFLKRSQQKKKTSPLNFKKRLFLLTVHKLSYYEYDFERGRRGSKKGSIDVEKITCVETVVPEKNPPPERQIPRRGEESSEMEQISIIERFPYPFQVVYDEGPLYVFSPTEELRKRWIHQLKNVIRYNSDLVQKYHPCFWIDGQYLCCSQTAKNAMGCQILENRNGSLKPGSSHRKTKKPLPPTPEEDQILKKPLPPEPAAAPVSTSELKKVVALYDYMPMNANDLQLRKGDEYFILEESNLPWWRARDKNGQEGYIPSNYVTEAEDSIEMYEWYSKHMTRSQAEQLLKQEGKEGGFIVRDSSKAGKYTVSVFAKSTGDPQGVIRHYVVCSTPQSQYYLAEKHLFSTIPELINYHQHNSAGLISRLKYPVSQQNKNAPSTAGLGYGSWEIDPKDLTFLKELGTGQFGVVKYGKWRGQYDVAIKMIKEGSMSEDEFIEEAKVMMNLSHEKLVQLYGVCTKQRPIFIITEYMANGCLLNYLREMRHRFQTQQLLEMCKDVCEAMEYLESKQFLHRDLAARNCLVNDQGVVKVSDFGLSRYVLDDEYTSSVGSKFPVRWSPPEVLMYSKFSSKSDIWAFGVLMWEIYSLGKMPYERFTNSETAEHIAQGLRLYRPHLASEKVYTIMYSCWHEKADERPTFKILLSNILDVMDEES
Sequence of LYN B (P07948 1-491 isoform P07948-2): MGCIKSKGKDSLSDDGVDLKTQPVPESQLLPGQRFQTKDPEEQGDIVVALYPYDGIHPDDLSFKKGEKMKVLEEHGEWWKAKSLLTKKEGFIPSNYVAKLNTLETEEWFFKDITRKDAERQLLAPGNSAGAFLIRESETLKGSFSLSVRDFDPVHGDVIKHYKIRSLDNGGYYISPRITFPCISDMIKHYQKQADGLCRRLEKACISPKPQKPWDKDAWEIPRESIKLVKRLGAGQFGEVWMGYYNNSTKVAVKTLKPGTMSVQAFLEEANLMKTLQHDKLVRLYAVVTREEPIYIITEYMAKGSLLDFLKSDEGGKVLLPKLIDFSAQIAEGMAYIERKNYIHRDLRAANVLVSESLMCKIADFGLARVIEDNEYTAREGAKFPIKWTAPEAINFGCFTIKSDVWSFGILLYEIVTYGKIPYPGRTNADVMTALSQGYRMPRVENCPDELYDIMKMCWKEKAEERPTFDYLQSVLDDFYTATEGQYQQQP
Sequence of JAK3 (P52333 whole entry): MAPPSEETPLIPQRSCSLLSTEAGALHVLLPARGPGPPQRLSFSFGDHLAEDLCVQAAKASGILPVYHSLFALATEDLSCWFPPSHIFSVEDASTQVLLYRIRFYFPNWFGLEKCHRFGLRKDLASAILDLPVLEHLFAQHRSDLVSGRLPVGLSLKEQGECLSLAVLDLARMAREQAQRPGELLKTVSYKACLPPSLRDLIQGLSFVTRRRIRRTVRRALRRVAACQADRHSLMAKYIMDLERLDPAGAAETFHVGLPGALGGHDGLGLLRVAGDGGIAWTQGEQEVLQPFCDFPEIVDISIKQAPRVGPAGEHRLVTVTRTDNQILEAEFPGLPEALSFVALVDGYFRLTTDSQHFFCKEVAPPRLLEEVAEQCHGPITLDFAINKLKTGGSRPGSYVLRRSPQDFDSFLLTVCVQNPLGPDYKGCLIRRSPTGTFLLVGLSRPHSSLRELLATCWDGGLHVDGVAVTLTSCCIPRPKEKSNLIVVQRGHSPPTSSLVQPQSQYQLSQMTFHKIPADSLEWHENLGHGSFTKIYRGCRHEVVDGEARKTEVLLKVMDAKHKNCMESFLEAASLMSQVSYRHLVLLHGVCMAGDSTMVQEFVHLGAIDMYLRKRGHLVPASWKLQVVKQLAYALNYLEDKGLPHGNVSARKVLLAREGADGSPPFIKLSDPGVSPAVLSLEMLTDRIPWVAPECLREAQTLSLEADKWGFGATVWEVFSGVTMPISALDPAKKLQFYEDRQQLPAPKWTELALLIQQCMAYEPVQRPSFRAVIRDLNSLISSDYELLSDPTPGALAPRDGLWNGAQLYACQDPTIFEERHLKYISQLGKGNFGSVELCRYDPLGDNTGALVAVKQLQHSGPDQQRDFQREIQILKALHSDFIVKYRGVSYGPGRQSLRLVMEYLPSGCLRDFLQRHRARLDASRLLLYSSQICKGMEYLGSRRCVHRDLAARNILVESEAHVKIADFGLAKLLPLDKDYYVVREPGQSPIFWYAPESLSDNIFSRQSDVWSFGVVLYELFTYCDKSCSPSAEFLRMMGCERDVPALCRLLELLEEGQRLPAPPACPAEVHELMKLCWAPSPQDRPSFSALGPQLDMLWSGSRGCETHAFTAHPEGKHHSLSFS
Sequence of ITK (Q08881 whole entry): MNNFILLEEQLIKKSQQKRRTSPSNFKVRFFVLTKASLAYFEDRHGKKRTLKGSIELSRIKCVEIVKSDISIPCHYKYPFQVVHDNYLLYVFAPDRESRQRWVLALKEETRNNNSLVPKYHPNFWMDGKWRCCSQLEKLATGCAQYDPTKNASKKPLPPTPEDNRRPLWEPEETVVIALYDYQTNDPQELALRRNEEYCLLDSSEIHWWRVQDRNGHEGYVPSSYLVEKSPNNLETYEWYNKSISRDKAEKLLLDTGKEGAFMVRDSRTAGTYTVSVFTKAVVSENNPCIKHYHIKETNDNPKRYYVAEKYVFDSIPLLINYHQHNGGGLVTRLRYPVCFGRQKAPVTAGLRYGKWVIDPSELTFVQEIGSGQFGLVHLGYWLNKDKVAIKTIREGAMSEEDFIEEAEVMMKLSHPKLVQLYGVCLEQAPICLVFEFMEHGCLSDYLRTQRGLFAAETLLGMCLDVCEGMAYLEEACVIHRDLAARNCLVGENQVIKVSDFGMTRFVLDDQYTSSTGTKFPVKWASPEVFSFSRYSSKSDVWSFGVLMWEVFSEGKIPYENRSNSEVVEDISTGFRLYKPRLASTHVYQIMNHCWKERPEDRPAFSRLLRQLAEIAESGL

## COc1cc2nccc(Oc3ccc(NC(=O)Nc4cc(C)on4)c(Cl)c3)c2cc1OC [TIVOZANIB, Tivozanib]
JAK2; 1 µM
  Gao et al. % of activity remaining at 1 µM: 114%
JAK2; 10 µM
  Gao et al. % of activity remaining at 10 µM: 114%
EEF2K; 1 µM
  Gao et al. % of activity remaining at 1 µM: 84%
EEF2K; 10 µM
  Gao et al. % of activity remaining at 10 µM: 116%
ERK2; 1 µM
  Gao et al. % of activity remaining at 1 µM: 103%
ERK2; 10 µM
  Gao et al. % of activity remaining at 10 µM: 104%
NEK2; 1 µM
  Gao et al. % of activity remaining at 1 µM: 88%
NEK2; 10 µM
  Gao et al. % of activity remaining at 10 µM: 100%
BTK; 1 µM
  Gao et al. % of activity remaining at 1 µM: 50%
BTK; 10 µM
  Gao et al. % of activity remaining at 10 µM: 10%
IKKb; 1 µM
  Gao et al. % of activity remaining at 1 µM: 104%
IKKb; 10 µM
  Gao et al. % of activity remaining at 10 µM: 102%
PKCg; 1 µM
  Gao et al. % of activity remaining at 1 µM: 109%
PKCg; 10 µM
  Gao et al. % of activity remaining at 10 µM: 110%
FES; 1 µM
  Gao et al. % of activity remaining at 1 µM: 78%
FES; 10 µM
  Gao et al. % of activity remaining at 10 µM: 46%
STK17A; 1 µM
  Gao et al. % of activity remaining at 1 µM: 116%
STK17A; 10 µM
  Gao et al. % of activity remaining at 10 µM: 87%
FER; 1 µM
  Gao et al. % of activity remaining at 1 µM: 87%
FER; 10 µM
  Gao et al. % of activity remaining at 10 µM: 16%
JAK3; 1 µM
  Gao et al. % of activity remaining at 1 µM: 100%
JAK3; 10 µM
  Gao et al. % of activity remaining at 10 µM: 48%
TRKB; 1 µM
  Gao et al. % of activity remaining at 1 µM: 42%
TRKB; 10 µM
  Gao et al. % of activity remaining at 10 µM: -10%
CLK2; 1 µM
  Gao et al. % of activity remaining at 1 µM: 114%
CLK2; 10 µM
  Gao et al. % of activity remaining at 10 µM: 99%
ITK
  Gao et al. % of activity remaining at 10 µM: 51%
DAPK3; 1 µM
  Gao et al. % of activity remaining at 1 µM: 82%
DAPK3; 10 µM
  Gao et al. % of activity remaining at 10 µM: 90%
CHUK; 1 µM
  Gao et al. % of activity remaining at 1 µM: 91%
CHUK; 10 µM
  Gao et al. % of activity remaining at 10 µM: 114%
LYN B; 1 µM
  Gao et al. % of activity remaining at 1 µM: -1%
LYN B; 10 µM
  Gao et al. % of activity remaining at 10 µM: 2%
CHK1; 1 µM
  Gao et al. % of activity remaining at 1 µM: 89%
CHK1; 10 µM
  Gao et al. % of activity remaining at 10 µM: 100%
PRKX; 1 µM
  Gao et al. % of activity remaining at 1 µM: 97%
PRKX; 10 µM
  Gao et al. % of activity remaining at 10 µM: 59%
CAMK2B; 1 µM
  Gao et al. % of activity remaining at 1 µM: 97%
CAMK2B; 10 µM
  Gao et al. % of activity remaining at 10 µM: 69%
IRAK1; 1 µM
  Gao et al. % of activity remaining at 1 µM: 82%
IRAK1; 10 µM
  Gao et al. % of activity remaining at 10 µM: 92%
CAMK2D; 1 µM
  Gao et al. % of activity remaining at 1 µM: 102%
CAMK2D; 10 µM
  Gao et al. % of activity remaining at 10 µM: 90%
MAPKAPK2; 1 µM
  Gao et al. % of activity remaining at 1 µM: 85%
MAPKAPK2; 10 µM
  Gao et al. % of activity remaining at 10 µM: 100%
AKT2; 1 µM
  Gao et al. % of activity remaining at 1 µM: 105%
AKT2; 10 µM
  Gao et al. % of activity remaining at 10 µM: 89%
CDK2; 1 µM
  Gao et al. % of activity remaining at 1 µM: 98%
CDK2; 10 µM
  Gao et al. % of activity remaining at 10 µM: 86%
AKT3; 1 µM
  Gao et al. % of activity remaining at 1 µM: 95%
AKT3; 10 µM
  Gao et al. % of activity remaining at 10 µM: 89%
PIM1; 1 µM
  Gao et al. % of activity remaining at 1 µM: 95%
PIM1; 10 µM
  Gao et al. % of activity remaining at 10 µM: 86%
ROS1; 1 µM
  Gao et al. % of activity remaining at 1 µM: 24%
ROS1; 10 µM
  Gao et al. % of activity remaining at 10 µM: 16%
TSSK1B; 1 µM
  Gao et al. % of activity remaining at 1 µM: 94%
TSSK1B; 10 µM
  Gao et al. % of activity remaining at 10 µM: 82%
ALK; 1 µM
  Gao et al. % of activity remaining at 1 µM: 83%
ALK; 10 µM
  Gao et al. % of activity remaining at 10 µM: 38%
MARK2; 1 µM
  Gao et al. % of activity remaining at 1 µM: 98%
MARK2; 10 µM
  Gao et al. % of activity remaining at 10 µM: 106%
FGFR3; 1 µM
  Gao et al. % of activity remaining at 1 µM: 59%
FGFR3; 10 µM
  Gao et al. % of activity remaining at 10 µM: 28%
InsR; 1 µM
  Gao et al. % of activity remaining at 1 µM: 102%
InsR; 10 µM
  Gao et al. % of activity remaining at 10 µM: 29%
